Reference: PubChem BioAssay (NCI)
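How tested: cells in 96-well plates exposed to compound for 48 hours at five concentrations. Abbreviation: GI50, concentration required for 50% inhibition of growth. TGI: concentration producing complete growth inhibition.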

How the values were obtained:
Experiment in all cases: inhibition of tumour cell growth, NCI panel, 48 h
[1] = system: 786-0 renal
[2] = system: A498 renal
[3] = system: A549 NSCLC
[4] = system: ACHN renal
[5] = system: BT-549 breast
[6] = system: CAKI-1 renal
[7] = system: CCRF-CEM leukemia
[8] = system: COLO 205 colon
[9] = system: DU-145 prostate
[10] = system: EKVX NSCLC
[11] = system: HCC-2998 colon
[12] = system: HCT-116 colon
[13] = system: HCT-15 colon
[14] = system: HL-60(TB) leukemia
[15] = system: HOP-62 NSCLC
[16] = system: HOP-92 NSCLC
[17] = system: HS 578T breast
[18] = system: HT29 colon
[19] = system: IGROV1 ovarian
[20] = system: K-562 leukemia
[21] = system: KM12 colon
[22] = system: LOX IMVI melanoma
[23] = system: M14 melanoma
[24] = system: MALME-3M melanoma
[25] = system: MCF7 breast
[26] = system: MDA-MB-231 breast
[27] = system: MDA-MB-435
[28] = system: MDA-MB-468 breast
[29] = system: MOLT-4 leukemia
[30] = system: NCI-H226 lung
[31] = system: NCI-H23 lung
[32] = system: NCI-H460 lung
[33] = system: NCI-H522 lung
[34] = system: NCI/ADR-RES ovarian
[35] = system: OVCAR-3 ovarian
[36] = system: OVCAR-4 ovarian
[37] = system: OVCAR-5 ovarian
[38] = system: OVCAR-8 ovarian
[39] = system: PC-3 prostate
[40] = system: RPMI-8226 leukemia
[41] = system: RXF 393 renal
[42] = system: SF-268 CNS
[43] = system: SF-295 CNS
[44] = system: SF-539 CNS
[45] = system: SK-MEL-2 melanoma
[46] = system: SK-MEL-28 melanoma
[47] = system: SK-MEL-5 melanoma
[48] = system: SK-OV-3 ovarian
[49] = system: SN12C renal
[50] = system: SNB-19 CNS
[51] = system: SNB-75 CNS
[52] = system: SR leukemia
[53] = system: SW-620 colon
[54] = system: T-47D breast
[55] = system: TK-10 renal
[56] = system: U251 CNS
[57] = system: UACC-257 melanoma
[58] = system: UACC-62 melanoma
[59] = system: UO-31 renal

With N#Cc1ccc(-c2nn(-c3ccc(C(=O)O)cc3)cc2CNc2cc(Cl)cc(C(F)(F)F)c2)cc1 the GI50 [1] was 14.1 µM, the TGI [1] was 32 µM and the GI50 [2] was 15.8 µM. It also gave a TGI [2] of 41 µM, a GI50 [3] of 7.98 µM and a TGI [3] of 32.1 µM. The GI50 [4] was 6.42 µM, the TGI [4] was 52.7 µM and the GI50 [5] was 11.3 µM. For the same compound, the TGI [5] was 31.1 µM, the GI50 [6] was 10.2 µM and the TGI [6] was 45.2 µM. For the same compound, the GI50 [7] was 4.2 µM, the TGI [7] was 20.8 µM and the GI50 [8] was 14 µM. The TGI [8] was 58.6 µM, the GI50 [9] was 11.9 µM and the TGI [9] was > 100 µM. For the same compound, the GI50 [10] was 5.47 µM, the TGI [10] was 30.8 µM and the GI50 [11] was 6.46 µM. The TGI [11] was 19.8 µM, the GI50 [12] was 4.46 µM and the TGI [12] was 17.1 µM. The GI50 [13] was 3.93 µM, the TGI [13] was 15.8 µM and the GI50 [14] was 6.31 µM. The TGI [14] was 31.8 µM, the GI50 [15] was 11.7 µM and the TGI [15] was 28.3 µM. It also gave a GI50 [16] of 3.48 µM, a TGI [16] of 15 µM and a GI50 [17] of 7.95 µM. It also gave a TGI [17] of 36.1 µM, a GI50 [18] of 13.5 µM and a TGI [18] of 38.2 µM. It also gave a GI50 [19] of 10.8 µM, a TGI [19] of 29.3 µM and a GI50 [20] of 3.71 µM. The TGI [20] was > 100 µM, the GI50 [21] was 5.71 µM and the TGI [21] was 19.3 µM. It also gave a GI50 [22] of 5.95 µM, a TGI [22] of 20.3 µM and a GI50 [23] of 10.1 µM. It also gave a TGI [23] of 35.1 µM, a GI50 [24] of 6.44 µM and a TGI [24] of 31.9 µM. The GI50 [25] was 5.16 µM, the TGI [25] was 26 µM and the GI50 [26] was 12.3 µM. The TGI [26] was 37 µM, the GI50 [27] was 7.05 µM and the TGI [27] was 56.4 µM. For the same compound, the GI50 [28] was 6.83 µM, the TGI [28] was 38.8 µM and the GI50 [29] was 4.26 µM. For the same compound, the TGI [29] was 22.9 µM, the GI50 [30] was 10.9 µM and the TGI [30] was 30.6 µM. It also gave a GI50 [31] of 5.19 µM, a TGI [31] of 19.4 µM and a GI50 [32] of 6.67 µM. It also gave a TGI [32] of 21 µM, a GI50 [33] of 3.18 µM and a TGI [33] of 12.1 µM. It also gave a GI50 [34] of 7.45 µM, a TGI [34] of 26.8 µM and a GI50 [35] of 4.98 µM. The TGI [35] was 18.6 µM, the GI50 [36] was 7 µM and the TGI [36] was > 100 µM. For the same compound, the GI50 [37] was 18.5 µM, the TGI [37] was 36 µM and the GI50 [38] was 7.28 µM. It also gave a TGI [38] of 27.8 µM, a GI50 [39] of 7 µM and a TGI [39] of 35.1 µM. The GI50 [40] was 3.87 µM, the TGI [40] was 63.5 µM and the GI50 [41] was 10.3 µM. For the same compound, the TGI [41] was 24.7 µM, the GI50 [42] was 14.3 µM and the TGI [42] was 67 µM. The GI50 [43] was 4.79 µM, the TGI [43] was 22.9 µM and the GI50 [44] was 11.4 µM. The TGI [44] was 24 µM, the GI50 [45] was 2.96 µM and the TGI [45] was 9.48 µM. It also gave a GI50 [46] of 4.6 µM, a TGI [46] of 28.3 µM and a GI50 [47] of 3.41 µM. It also gave a TGI [47] of 13.5 µM, a GI50 [48] of 15.1 µM and a TGI [48] of 37.9 µM. The GI50 [49] was 6.89 µM, the TGI [49] was 33 µM and the GI50 [50] was 7.61 µM. The TGI [50] was 33.7 µM, the GI50 [51] was 15.5 µM and the TGI [51] was 45.6 µM. The GI50 [52] was 3.77 µM, the TGI [52] was > 100 µM and the GI50 [53] was 9.22 µM. For the same compound, the TGI [53] was 25 µM, the GI50 [54] was 3.8 µM and the TGI [54] was > 100 µM. The GI50 [55] was 17.2 µM, the TGI [55] was > 100 µM and the GI50 [56] was 7.26 µM. For the same compound, the TGI [56] was 32.6 µM, the GI50 [57] was 7.02 µM and the TGI [57] was 40.2 µM. For the same compound, the GI50 [58] was 3.64 µM, the TGI [58] was 14.4 µM and the GI50 [59] was 4.34 µM. The TGI [59] was 22 µM.
